# Assay results reported in BindingDB's records for doi:10.1016/j.bmc.2006.01.067 (Johnson & Johnson Pharmaceutical, 2006).
# Molecular target: T1, Integrin alpha-4/beta-7 (Homo sapiens, UniProt P13612+P26010)
# T1 sequence (P13612 whole entry): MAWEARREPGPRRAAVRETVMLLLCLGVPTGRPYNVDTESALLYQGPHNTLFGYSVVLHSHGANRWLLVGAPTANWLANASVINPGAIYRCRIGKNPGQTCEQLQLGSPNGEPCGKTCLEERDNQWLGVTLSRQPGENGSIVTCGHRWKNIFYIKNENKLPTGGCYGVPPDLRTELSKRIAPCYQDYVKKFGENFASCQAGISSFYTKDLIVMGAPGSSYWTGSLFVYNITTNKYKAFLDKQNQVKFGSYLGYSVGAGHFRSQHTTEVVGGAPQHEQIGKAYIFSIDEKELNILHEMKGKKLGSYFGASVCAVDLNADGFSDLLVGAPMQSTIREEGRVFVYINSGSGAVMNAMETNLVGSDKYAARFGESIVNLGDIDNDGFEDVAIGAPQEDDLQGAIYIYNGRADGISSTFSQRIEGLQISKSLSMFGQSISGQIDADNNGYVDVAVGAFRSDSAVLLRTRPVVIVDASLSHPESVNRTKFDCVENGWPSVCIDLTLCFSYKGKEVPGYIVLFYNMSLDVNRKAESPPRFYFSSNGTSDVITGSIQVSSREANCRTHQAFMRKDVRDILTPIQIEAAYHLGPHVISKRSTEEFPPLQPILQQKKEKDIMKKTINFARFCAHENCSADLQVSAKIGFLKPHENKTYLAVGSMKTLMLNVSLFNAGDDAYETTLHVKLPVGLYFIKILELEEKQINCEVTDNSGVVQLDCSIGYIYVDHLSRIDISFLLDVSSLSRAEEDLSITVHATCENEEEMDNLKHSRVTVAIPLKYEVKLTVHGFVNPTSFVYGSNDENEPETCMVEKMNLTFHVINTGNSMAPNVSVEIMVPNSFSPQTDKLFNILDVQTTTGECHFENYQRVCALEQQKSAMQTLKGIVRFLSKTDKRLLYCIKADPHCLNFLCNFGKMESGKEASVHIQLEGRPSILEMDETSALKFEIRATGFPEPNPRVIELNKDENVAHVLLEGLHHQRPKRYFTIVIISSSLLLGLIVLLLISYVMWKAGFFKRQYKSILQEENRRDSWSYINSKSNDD
# T1 sequence (P26010 whole entry): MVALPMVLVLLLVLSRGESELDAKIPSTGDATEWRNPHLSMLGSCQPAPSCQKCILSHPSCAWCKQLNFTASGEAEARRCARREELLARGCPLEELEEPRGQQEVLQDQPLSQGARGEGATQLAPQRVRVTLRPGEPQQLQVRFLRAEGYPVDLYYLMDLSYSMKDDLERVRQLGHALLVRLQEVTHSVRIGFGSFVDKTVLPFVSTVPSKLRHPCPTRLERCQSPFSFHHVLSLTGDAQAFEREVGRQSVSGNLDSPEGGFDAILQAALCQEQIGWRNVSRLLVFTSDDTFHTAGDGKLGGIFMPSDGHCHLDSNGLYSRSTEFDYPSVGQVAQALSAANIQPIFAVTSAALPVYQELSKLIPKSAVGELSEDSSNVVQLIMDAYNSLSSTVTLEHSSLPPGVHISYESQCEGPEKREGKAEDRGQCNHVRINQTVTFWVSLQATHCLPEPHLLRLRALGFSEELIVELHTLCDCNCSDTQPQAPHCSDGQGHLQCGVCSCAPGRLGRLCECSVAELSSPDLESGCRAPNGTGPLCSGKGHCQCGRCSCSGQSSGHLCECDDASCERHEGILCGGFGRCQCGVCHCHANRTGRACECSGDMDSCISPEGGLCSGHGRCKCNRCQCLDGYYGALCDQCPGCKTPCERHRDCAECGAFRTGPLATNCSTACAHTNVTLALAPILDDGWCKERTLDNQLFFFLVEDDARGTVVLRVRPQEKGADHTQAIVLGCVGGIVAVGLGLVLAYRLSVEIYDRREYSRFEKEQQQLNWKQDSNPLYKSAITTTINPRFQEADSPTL
# Test: K562 Cell Adhesion Assay (alpha4beta7 Mediated Adhesion/MAdCAM-1)
# Details: pH 7.4; 23 °C
# Protocol: M2 anti-FLAG antibody coated 96-well plates were coated with recombinant FLAG-hMAdCAM-1 contained in Dulbecco PBS. The compounds to be tested were added. Stably transfected K562 cells expressing human alpha4beta7 integrin that had been labeled with […] fluorescein diacetate succinimidyl ester (CFDA-SE) were added to each well and allowed to adhere for 1 h at room temperature. Plates were washed, and then cells were lysed. The plate was read on a 96-well fluorescent plate reader at 485 nm excitation and 530 nm emission.
row,IC50 [nM],Structure (SMILES)
1,110,O=C(O)[C@H](Cc1ccc(N2C(=O)c3ccccc3C2=O)cc1)NC(=O)[C@@H]1C2CCC(CC2)N1S(=O)(=O)c1ccccc1
2,120,O=C(Nc1ccc(C[C@H](NC(=O)[C@@H]2C3CCC(CC3)N2S(=O)(=O)c2ccccc2)C(=O)O)cc1)c1ccncc1 [(2S)-2-{[(3S)-2-(benzenesulfonyl)-2-azabicyclo[2.2.2]octan-3-yl]formamido}-3-[4-(pyridine-4-amido)phenyl]propanoic acid]
3,46,"O=C(Nc1ccc(C[C@H](NC(=O)[C@@H]2C3CCC(CC3)N2S(=O)(=O)c2ccccc2)C(=O)O)cc1)c1cc(Cl)nc(Cl)c1 [(2S)-2-{[(3S)-2-(benzenesulfonyl)-2-azabicyclo[2.2.2]octan-3-yl]formamido}-3-{4-[(2,6-dichloropyridine-4-)amido]phenyl}propanoic acid]"
